Test results as given in a compilation of properties of binary mixtures (doi:10.1016/j.molliq.2012.02.019).

Test: xn = mol fraction of the nth substance listed
Conditions: 101 kPa

COC(=O)OC + CCCCCCCC[N+](C)(CCCCCCCC)CCCCCCCC.[Cl-]
x1 = 1
Conditions | electrical conductivity [S/m] | viscosity [mPa·s]
303.15 K | 0.0001 | 0.55
308.15 K | – | 0.49

CCCCCCCC[N+](C)(CCCCCCCC)CCCCCCCC.[Cl-] + COC(=O)OC
Conditions | electrical conductivity, 298.15 K [S/m] | electrical conductivity, 303.15 K [S/m] | electrical conductivity, 308.15 K [S/m] | electrical conductivity, 313.15 K [S/m] | electrical conductivity, 318.15 K [S/m] | viscosity, 298.15 K [mPa·s] | viscosity, 303.15 K [mPa·s] | viscosity, 308.15 K [mPa·s] | viscosity, 313.15 K [mPa·s] | viscosity, 318.15 K [mPa·s]
x1 = 0.002 | 0.0001 | – | 0.0002 | 0.0003 | 0.0004 | – | – | – | – | –
x1 = 0.006 | – | 0.0003 | 0.0004 | – | 0.0006 | – | – | – | – | –
x1 = 0.011 | 0.0006 | 0.0008 | 0.0009 | 0.001 | 0.0012 | – | – | – | – | –
x1 = 0.015 | 0.0009 | – | 0.0013 | 0.0014 | 0.0015 | – | – | – | – | –
x2 = 0 | – | 0.0035 | 0.0049 | 0.0066 | 0.0087 | – | 1602 | 1067 | 770 | 570
x2 = 0.35 | 0.0047 | 0.0064 | 0.0084 | 0.0108 | 0.0138 | 530 | 400 | 304 | 238 | 200
x2 = 0.55 | 0.0098 | – | 0.016 | – | 0.0249 | 158 | – | 98 | – | 65.2
x2 = 0.67 | – | 0.019 | 0.0236 | 0.0287 | 0.0347 | – | 47.1 | 38.66 | 32.21 | 27.29
x2 = 0.76 | 0.0211 | 0.0259 | – | 0.038 | 0.0452 | 22.51 | 18.86 | – | 13.72 | 11.84
x2 = 0.83 | 0.0235 | 0.0287 | 0.0345 | 0.041 | 0.0482 | 10.27 | 8.87 | 7.71 | 6.91 | 6.15
x2 = 0.88 | – | 0.031 | 0.037 | 0.0438 | 0.0513 | – | 4.56 | 4.11 | 3.7 | 3.36
x2 = 0.92 | 0.0171 | 0.0204 | 0.0246 | – | 0.0342 | 2.52 | 2.27 | 2.07 | – | 1.75
x2 = 0.95 | 0.0076 | 0.0094 | – | 0.014 | 0.0167 | 1.41 | 1.3 | – | 1.13 | 1.06
x2 = 0.98 | 0.0012 | 0.0016 | – | – | 0.002 | 0.79 | 0.75 | – | – | 0.64
